Experimental data published in PubChem BioAssay (NCI).
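1) Cells in 96-well plates. 2) Compound, 48 h, 5 concentrations. 3) Linear interpolation between surrounding doses. 4) Unreached endpoint = highest concentration. GI50 is the concentration that inhibits growth by half. TGI: total growth inhibition.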

How the values were obtained:
Assay in all cases: NCI anticancer screen, dose series, 48 h
HCT-116 colon = test system: HCT-116 colon
LOX IMVI melanoma = test system: LOX IMVI melanoma
NCI-H23 lung = test system: NCI-H23 lung
CCRF-CEM leukemia = test system: CCRF-CEM leukemia
ACHN renal = test system: ACHN renal
SN12C renal = test system: SN12C renal
EKVX NSCLC = test system: EKVX NSCLC
NCI-H226 lung = test system: NCI-H226 lung
SNB-19 CNS = test system: SNB-19 CNS
K-562 leukemia = test system: K-562 leukemia
SK-OV-3 ovarian = test system: SK-OV-3 ovarian
UACC-62 melanoma = test system: UACC-62 melanoma
SK-MEL-28 melanoma = test system: SK-MEL-28 melanoma
MDA-MB-231 breast = test system: MDA-MB-231 breast
OVCAR-4 ovarian = test system: OVCAR-4 ovarian
UACC-257 melanoma = test system: UACC-257 melanoma
IGROV1 ovarian = test system: IGROV1 ovarian
HL-60(TB) leukemia = test system: HL-60(TB) leukemia
SK-MEL-2 melanoma = test system: SK-MEL-2 melanoma
SF-295 CNS = test system: SF-295 CNS
M14 melanoma = test system: M14 melanoma
SF-268 CNS = test system: SF-268 CNS
BT-549 breast = test system: BT-549 breast
MDA-MB-435 = test system: MDA-MB-435
HCT-15 colon = test system: HCT-15 colon
COLO 205 colon = test system: COLO 205 colon
HOP-92 NSCLC = test system: HOP-92 NSCLC
DU-145 prostate = test system: DU-145 prostate
OVCAR-8 ovarian = test system: OVCAR-8 ovarian
MALME-3M melanoma = test system: MALME-3M melanoma
SK-MEL-5 melanoma = test system: SK-MEL-5 melanoma
TK-10 renal = test system: TK-10 renal
OVCAR-5 ovarian = test system: OVCAR-5 ovarian
SF-539 CNS = test system: SF-539 CNS
NCI-H522 lung = test system: NCI-H522 lung
786-0 renal = test system: 786-0 renal
OVCAR-3 ovarian = test system: OVCAR-3 ovarian
SW-620 colon = test system: SW-620 colon
NCI-H460 lung = test system: NCI-H460 lung
KM12 colon = test system: KM12 colon
SNB-75 CNS = test system: SNB-75 CNS
HOP-62 NSCLC = test system: HOP-62 NSCLC
HT29 colon = test system: HT29 colon
HCC-2998 colon = test system: HCC-2998 colon
RXF 393 renal = test system: RXF 393 renal
MCF7 breast = test system: MCF7 breast
A549 NSCLC = test system: A549 NSCLC
UO-31 renal = test system: UO-31 renal
U251 CNS = test system: U251 CNS
NCI/ADR-RES ovarian = test system: NCI/ADR-RES ovarian
CAKI-1 renal = test system: CAKI-1 renal
RPMI-8226 leukemia = test system: RPMI-8226 leukemia
A498 renal = test system: A498 renal
PC-3 prostate = test system: PC-3 prostate
SR leukemia = test system: SR leukemia
MOLT-4 leukemia = test system: MOLT-4 leukemia
T-47D breast = test system: T-47D breast

C=CCO[C@H]1CO[C@H]2[C@@H]1OC[C@@H]2Oc1ccc(Nc2ccnc(Nc3ccc(O[C@H]4CO[C@H]5[C@@H]4OC[C@@H]5OCC=C)c(Cl)c3)n2)cc1Cl
GI50 (HCT-116 colon): 1.82 µM
TGI (HCT-116 colon): 3.44 µM
GI50 (LOX IMVI melanoma): 1.76 µM
TGI (LOX IMVI melanoma): 3.31 µM
GI50 (NCI-H23 lung): 1.79 µM
TGI (NCI-H23 lung): 3.71 µM
GI50 (CCRF-CEM leukemia): 0.652 µM
TGI (CCRF-CEM leukemia): 3.43 µM
GI50 (ACHN renal): 1.77 µM
TGI (ACHN renal): 3.31 µM
GI50 (SN12C renal): 1.68 µM
TGI (SN12C renal): 3.33 µM
GI50 (EKVX NSCLC): 1.69 µM
TGI (EKVX NSCLC): 3.15 µM
GI50 (NCI-H226 lung): 7.46 µM
TGI (NCI-H226 lung): 72.3 µM
GI50 (SNB-19 CNS): 2 µM
TGI (SNB-19 CNS): 3.73 µM
GI50 (K-562 leukemia): 0.378 µM
TGI (K-562 leukemia): 1.9 µM
GI50 (SK-OV-3 ovarian): 16.8 µM
TGI (SK-OV-3 ovarian): 31.2 µM
GI50 (UACC-62 melanoma): 1.81 µM
TGI (UACC-62 melanoma): 3.32 µM
GI50 (SK-MEL-28 melanoma): 1.73 µM
TGI (SK-MEL-28 melanoma): 3.16 µM
GI50 (MDA-MB-231 breast): 1.69 µM
TGI (MDA-MB-231 breast): 3.23 µM
GI50 (OVCAR-4 ovarian): 1.57 µM
TGI (OVCAR-4 ovarian): 2.93 µM
GI50 (UACC-257 melanoma): 1.83 µM
TGI (UACC-257 melanoma): 3.69 µM
GI50 (IGROV1 ovarian): 1.79 µM
TGI (IGROV1 ovarian): 3.54 µM
GI50 (HL-60(TB) leukemia): 1.62 µM
TGI (HL-60(TB) leukemia): 3.78 µM
GI50 (SK-MEL-2 melanoma): 2.29 µM
TGI (SK-MEL-2 melanoma): 5.31 µM
GI50 (SF-295 CNS): 1.85 µM
TGI (SF-295 CNS): 3.49 µM
GI50 (M14 melanoma): 1.77 µM
TGI (M14 melanoma): 3.4 µM
GI50 (SF-268 CNS): 1.98 µM
TGI (SF-268 CNS): 3.76 µM
GI50 (BT-549 breast): 1.6 µM
TGI (BT-549 breast): 3.11 µM
GI50 (MDA-MB-435): 1.67 µM
TGI (MDA-MB-435): 3.06 µM
GI50 (HCT-15 colon): 1.48 µM
TGI (HCT-15 colon): 3.06 µM
GI50 (COLO 205 colon): 1.6 µM
TGI (COLO 205 colon): 4.06 µM
GI50 (HOP-92 NSCLC): 1.66 µM
TGI (HOP-92 NSCLC): 3.3 µM
GI50 (DU-145 prostate): 1.69 µM
TGI (DU-145 prostate): 3.13 µM
GI50 (OVCAR-8 ovarian): 1.93 µM
TGI (OVCAR-8 ovarian): 5.92 µM
GI50 (MALME-3M melanoma): 1.54 µM
TGI (MALME-3M melanoma): 2.91 µM
GI50 (SK-MEL-5 melanoma): 1.46 µM
TGI (SK-MEL-5 melanoma): 2.8 µM
GI50 (TK-10 renal): 1.86 µM
TGI (TK-10 renal): 3.63 µM
GI50 (OVCAR-5 ovarian): 1.83 µM
TGI (OVCAR-5 ovarian): 3.29 µM
GI50 (SF-539 CNS): 1.83 µM
TGI (SF-539 CNS): 3.25 µM
GI50 (NCI-H522 lung): 1.96 µM
TGI (NCI-H522 lung): 4.24 µM
GI50 (786-0 renal): 1.87 µM
TGI (786-0 renal): 3.37 µM
GI50 (OVCAR-3 ovarian): 1.81 µM
TGI (OVCAR-3 ovarian): 3.25 µM
GI50 (SW-620 colon): 1.77 µM
TGI (SW-620 colon): 3.29 µM
GI50 (NCI-H460 lung): 1.76 µM
TGI (NCI-H460 lung): 3.35 µM
GI50 (KM12 colon): 1.65 µM
TGI (KM12 colon): 3.08 µM
GI50 (SNB-75 CNS): 1.86 µM
TGI (SNB-75 CNS): 3.31 µM
GI50 (HOP-62 NSCLC): 1.93 µM
TGI (HOP-62 NSCLC): 4.01 µM
GI50 (HT29 colon): 2.08 µM
TGI (HT29 colon): 4.99 µM
GI50 (HCC-2998 colon): 1.94 µM
TGI (HCC-2998 colon): 3.43 µM
GI50 (RXF 393 renal): 1.69 µM
TGI (RXF 393 renal): 3.1 µM
GI50 (MCF7 breast): 1.56 µM
TGI (MCF7 breast): 3.38 µM
GI50 (A549 NSCLC): 1.84 µM
TGI (A549 NSCLC): 3.95 µM
GI50 (UO-31 renal): 1.58 µM
TGI (UO-31 renal): 2.93 µM
GI50 (U251 CNS): 1.85 µM
TGI (U251 CNS): 3.83 µM
GI50 (NCI/ADR-RES ovarian): 1.78 µM
TGI (NCI/ADR-RES ovarian): 3.85 µM
GI50 (CAKI-1 renal): 1.73 µM
TGI (CAKI-1 renal): 3.1 µM

C[N+](C)(C)CC(=O)N/N=C(/CC(=O)CC(C1=C(O)c2ccccc2OC1)c1ccccc1)C(=O)Nc1cccc(Cl)c1 (stereo not given)
TGI (HCT-116 colon): > 100 µM
TGI (LOX IMVI melanoma): > 100 µM
TGI (RPMI-8226 leukemia): > 100 µM
TGI (NCI-H23 lung): > 100 µM
TGI (CCRF-CEM leukemia): > 100 µM
TGI (ACHN renal): > 100 µM
TGI (SN12C renal): > 100 µM
TGI (EKVX NSCLC): > 100 µM
TGI (NCI-H226 lung): > 100 µM
TGI (K-562 leukemia): > 100 µM
TGI (A498 renal): > 100 µM
TGI (SK-OV-3 ovarian): > 100 µM
TGI (UACC-62 melanoma): > 100 µM
TGI (SK-MEL-28 melanoma): > 100 µM
TGI (PC-3 prostate): > 100 µM
TGI (MDA-MB-231 breast): > 100 µM
TGI (OVCAR-4 ovarian): > 100 µM
TGI (UACC-257 melanoma): > 100 µM
TGI (SR leukemia): > 100 µM
TGI (IGROV1 ovarian): > 100 µM
TGI (HL-60(TB) leukemia): > 100 µM
TGI (SK-MEL-2 melanoma): > 100 µM
TGI (SF-295 CNS): > 100 µM
TGI (M14 melanoma): > 100 µM
TGI (SF-268 CNS): > 100 µM
TGI (BT-549 breast): > 100 µM
TGI (MOLT-4 leukemia): > 100 µM
TGI (HCT-15 colon): > 100 µM
TGI (COLO 205 colon): > 100 µM
TGI (HOP-92 NSCLC): > 100 µM
TGI (DU-145 prostate): > 100 µM
TGI (T-47D breast): > 100 µM
TGI (OVCAR-8 ovarian): > 100 µM
TGI (SK-MEL-5 melanoma): > 100 µM
TGI (TK-10 renal): > 100 µM
TGI (OVCAR-5 ovarian): > 100 µM
TGI (SF-539 CNS): > 100 µM
TGI (NCI-H522 lung): > 100 µM
TGI (786-0 renal): > 100 µM
TGI (OVCAR-3 ovarian): > 100 µM
TGI (SW-620 colon): > 100 µM
TGI (KM12 colon): > 100 µM
TGI (SNB-75 CNS): > 100 µM
TGI (HOP-62 NSCLC): > 100 µM
TGI (HT29 colon): > 100 µM
TGI (HCC-2998 colon): > 100 µM
TGI (RXF 393 renal): > 100 µM
TGI (MCF7 breast): > 100 µM
TGI (A549 NSCLC): > 100 µM
TGI (UO-31 renal): > 100 µM
TGI (U251 CNS): > 100 µM
TGI (NCI/ADR-RES ovarian): > 100 µM
TGI (CAKI-1 renal): > 100 µM
